Consider 5 compounds from ChEMBL document CHEMBL5724914, “Linking interpersonal differences in gut microbiota composition and drug biotransformation activity” (2024).

The nature of data set [1]: The drug is tested on Z-029 corresponding to rat gut metagenome with ENA study accession number: PRJEB37062 and ENA sample accession number: ERS12561828 for biotransformation under anaerobic condition. The drug concentrations were measured over 9 timepoints collected between 0 and 24 hours of incubation by liquid-chromatography-coupled mass spectrometry (LC–MS). As to conditions: 2 µM.

Data set [2] can be described thus: The drug is tested on Z-028 corresponding to mouse gut metagenome with ENA study accession number: PRJEB37062 and ENA sample accession number: ERS12561827 for biotransformation under anaerobic condition. The drug concentrations were measured over 9 timepoints collected between 0 and 24 hours of incubation by liquid-chromatography-coupled mass spectrometry (LC–MS). The note with it: 2 µM.

Data set [3] can be described thus: The drug is tested on Z-022 corresponding to mouse gut metagenome with ENA study accession number: PRJEB37062 and ENA sample accession number: ERS12561821 for biotransformation under anaerobic condition. The drug concentrations were measured over 9 timepoints collected between 0 and 24 hours of incubation by liquid-chromatography-coupled mass spectrometry (LC–MS). As to conditions: 2 µM.

Data set [4] can be described thus: The drug is tested on Z-020 corresponding to rabbit gut metagenome with ENA study accession number: PRJEB37062 and ENA sample accession number: ERS12561819 for biotransformation under anaerobic condition. The drug concentrations were measured over 9 timepoints collected between 0 and 24 hours of incubation by liquid-chromatography-coupled mass spectrometry (LC–MS). As to conditions: 2 µM.

The nature of data set [5]: The drug is tested on Z-019 corresponding to rat gut metagenome with ENA study accession number: PRJEB37062 and ENA sample accession number: ERS12561818 for biotransformation under anaerobic condition. The drug concentrations were measured over 9 timepoints collected between 0 and 24 hours of incubation by liquid-chromatography-coupled mass spectrometry (LC–MS). The note with it: 2 µM.

Data set [6] is described as follows: The drug is tested on Z-018 corresponding to pig gut metagenome with ENA study accession number: PRJEB37062 and ENA sample accession number: ERS12561817 for biotransformation under anaerobic condition. The drug concentrations were measured over 9 timepoints collected between 0 and 24 hours of incubation by liquid-chromatography-coupled mass spectrometry (LC–MS). The note with it: 2 µM.

Data set [7] is described as follows: The drug is tested on Z-008 corresponding to metagenome with ENA study accession number: PRJEB37062 and ENA sample accession number: ERS12561808 for biotransformation under anaerobic condition. The drug concentrations were measured over 9 timepoints collected between 0 and 24 hours of incubation by liquid-chromatography-coupled mass spectrometry (LC–MS). As to conditions: 2 µM.

The nature of data set [8]: The drug is tested on WLS-310 corresponding to human gut metagenome with ENA study accession number: PRJEB37062 and ENA sample accession number: ERS12561785 for biotransformation under anaerobic condition. The drug concentrations were measured over 9 timepoints collected between 0 and 24 hours of incubation by liquid-chromatography-coupled mass spectrometry (LC–MS). The note with it: 2 µM.

A short description of data set [9]: The drug is tested on WLS-098 corresponding to human gut metagenome with ENA study accession number: PRJEB37062 and ENA sample accession number: ERS12561754 for biotransformation under anaerobic condition. The drug concentrations were measured over 9 timepoints collected between 0 and 24 hours of incubation by liquid-chromatography-coupled mass spectrometry (LC–MS). The note with it: 2 µM.

Data set [10] in a line: The drug is tested on WLS-073 corresponding to human gut metagenome with ENA study accession number: PRJEB37062 and ENA sample accession number: ERS12561749 for biotransformation under anaerobic condition. The drug concentrations were measured over 9 timepoints collected between 0 and 24 hours of incubation by liquid-chromatography-coupled mass spectrometry (LC–MS). As to conditions: 2 µM.

Data set [11] is described as follows: The drug is tested on WLS-069 corresponding to human gut metagenome with ENA study accession number: PRJEB37062 and ENA sample accession number: ERS12561748 for biotransformation under anaerobic condition. The drug concentrations were measured over 9 timepoints collected between 0 and 24 hours of incubation by liquid-chromatography-coupled mass spectrometry (LC–MS). The note with it: 2 µM.

Data set [12] can be described thus: The drug is tested on WLS-039 corresponding to human gut metagenome with ENA study accession number: PRJEB37062 and ENA sample accession number: ERS12561746 for biotransformation under anaerobic condition. The drug concentrations were measured over 9 timepoints collected between 0 and 24 hours of incubation by liquid-chromatography-coupled mass spectrometry (LC–MS). As to conditions: 2 µM.

A short description of data set [13]: The drug is tested on WLS-038 corresponding to human gut metagenome with ENA study accession number: PRJEB37062 and ENA sample accession number: ERS12561745 for biotransformation under anaerobic condition. The drug concentrations were measured over 9 timepoints collected between 0 and 24 hours of incubation by liquid-chromatography-coupled mass spectrometry (LC–MS). The note with it: 2 µM.

Data set [14] in a line: The drug is tested on WLS-006 corresponding to human gut metagenome with ENA study accession number: PRJEB37062 and ENA sample accession number: ERS12561741 for biotransformation under anaerobic condition. The drug concentrations were measured over 9 timepoints collected between 0 and 24 hours of incubation by liquid-chromatography-coupled mass spectrometry (LC–MS). As to conditions: 2 µM.

The conditions of data set [15]: human gut metagenome, 24 h, 2 µM.
The conditions of data set [16]: human gut metagenome, 24 h, 2 µM. This is another data set of the same source.
The conditions of data set [17]: human gut metagenome, 24 h, 2 µM. This is another data set of the same source.
The conditions of data set [18]: human gut metagenome, 24 h, 2 µM. The source holds these as a separate data set.
For data set [19] the following is noted: human gut metagenome, 24 h, 2 µM. The source holds these as a separate data set.
The conditions of data set [20]: human gut metagenome, 24 h, 2 µM. This is another data set of the same source.
Further: call rule not given here.

On to `Br.COc1ccc2c(c1)[C@]13CCCC[C@@H]1[C@H](C2)N(C)CC3.O` [DEXTROMETHORPHAN HYDROBROMIDE], for which the “Bacterial Biotransformation” value in data set [1] is on record as “Compound NOT metabolized”; in data set [2], “Compound NOT metabolized”; in data set [3], “Compound NOT metabolized”; in data set [4], “Compound metabolized”; in [5], “Compound NOT metabolized”; in data set [6] it was “Compound metabolized”. The “Bacterial Biotransformation” value is on record as “Compound NOT metabolized” in [7]; “Compound metabolized” in data set [8]; “Compound metabolized” in data set [9]; “Compound NOT metabolized” in [10]; “Compound metabolized” in [11]; “Compound NOT metabolized” in data set [12]. In addition, the “Bacterial Biotransformation” value was “Compound NOT metabolized” in data set [13]; “Compound metabolized” in data set [14]; “Compound NOT metabolized” in data set [15]; “Compound NOT metabolized” in data set [16]; “Compound NOT metabolized” in data set [17]; “Compound metabolized” in [18]. Further, the “Bacterial Biotransformation” value in [19] and in [20] was “Compound metabolized” throughout.
Take `CCN(CC)CCOC(=O)C1(C2CCCCC2)CCCCC1` [DICYCLOMINE]: the “Bacterial Biotransformation” value in data set [1] was “Compound NOT metabolized”; in data set [2], “Compound NOT metabolized”; in [3], “Compound metabolized”; in data set [4], “Compound NOT metabolized”; in [5], “Compound NOT metabolized”; in data set [6], “Compound NOT metabolized”. The “Bacterial Biotransformation” value in data set [7] was “Compound NOT metabolized”; in data set [8] it was “Compound metabolized”; in data set [9], “Compound NOT metabolized”; in data set [10], “Compound NOT metabolized”; in data set [11] it was “Compound metabolized”; in data set [12], “Compound NOT metabolized”. The “Bacterial Biotransformation” value in data set [13] is “Compound NOT metabolized”; in data set [14] it was “Compound metabolized”; in [15], “Compound NOT metabolized”; in [16], “Compound NOT metabolized”; in [17], “Compound metabolized”; in data set [18] it was “Compound NOT metabolized”. For the same compound, the “Bacterial Biotransformation” value in [19] and in data set [20] was “Compound metabolized” throughout.
Regarding `COc1ccc([C@@H]2Sc3ccccc3N(CCN(C)C)C(=O)[C@@H]2OC(C)=O)cc1` [DILTIAZEM], the “Bacterial Biotransformation” value was “Compound NOT metabolized” in data set [1]; “Compound metabolized” in data set [2]; “Compound metabolized” in data set [3]; “Compound metabolized” in data set [4]; “Compound NOT metabolized” in data set [5]; “Compound metabolized” in data set [6]. In addition, the “Bacterial Biotransformation” value in data set [7] is “Compound NOT metabolized”; in data set [8], “Compound metabolized”; in data set [9], “Compound metabolized”; in data set [10], “Compound metabolized”; in data set [11], “Compound metabolized”; in [12], “Compound metabolized”. For the same compound, the “Bacterial Biotransformation” value is recorded as “Compound NOT metabolized” in [13]; “Compound metabolized” in data set [14]; “Compound NOT metabolized” in data set [15]; “Compound metabolized” in data set [16]; “Compound metabolized” in [17]; “Compound NOT metabolized” in [18]. Besides, the “Bacterial Biotransformation” value is recorded as “Compound NOT metabolized” in data set [19] and “Compound metabolized” in data set [20].
In the case of `OCCN(CCO)c1nc(N2CCCCC2)c2nc(N(CCO)CCO)nc(N3CCCCC3)c2n1` [DIPYRIDAMOLE], the “Bacterial Biotransformation” value is on record as “Compound NOT metabolized” in data set [1]; “Compound NOT metabolized” in [2]; “Compound metabolized” in data set [3]; “Compound NOT metabolized” in data set [4]; “Compound NOT metabolized” in data set [5]; “Compound metabolized” in data set [6]. For the same compound, the “Bacterial Biotransformation” value is “Compound NOT metabolized” in data set [7]; “Compound metabolized” in data set [8]; “Compound metabolized” in data set [9]; “Compound NOT metabolized” in data set [10]; “Compound metabolized” in data set [11]; “Compound metabolized” in [12]. The “Bacterial Biotransformation” value in data set [13] is “Compound NOT metabolized”; in data set [14], “Compound NOT metabolized”; in data set [15], “Compound NOT metabolized”; in data set [16], “Compound metabolized”; in data set [17] it was “Compound metabolized”; in data set [18] it was “Compound metabolized”. Also, the “Bacterial Biotransformation” value in [19] was “Compound NOT metabolized”; in [20], “Compound metabolized”.
Regarding `CN(C)CCOC(C)(c1ccccc1)c1ccccn1.O=C(O)CCC(=O)O` (stereo not given) [DOXYLAMINE SUCCINATE], the “Bacterial Biotransformation” value in [1], in data set [2], in data set [3], in data set [4], in data set [5] and in data set [6] was “Compound NOT metabolized” in each case. For the same compound, the “Bacterial Biotransformation” value in data set [7], in data set [8], in data set [9], in [10], in data set [11] and in [12] was “Compound NOT metabolized” in each case. Besides, the “Bacterial Biotransformation” value in data set [13], in [14], in [15], in data set [16], in data set [17] and in [18] was “Compound NOT metabolized” in each case. The “Bacterial Biotransformation” value in data set [19] and in data set [20] was “Compound NOT metabolized” throughout.
